Tests used:
Assay type in all cases: cell-based
[1] = tested on: HBsAg; experiment: PHH HBV natural infection assay, HBsAg (alphalisa); details: Hepatitis B virus, Hepatocyte, read-out: HBsAg IC50
Protocol: (§1) Detailed procedures regarding primary human hepatocyte (PHH) HBV natural infection assay are described as below. One tube of frozen PHH (10 million cells) is thawed in 37° C. water bath and then transferred to 20 mL of PHH thawing medium (Sigma, InVitroGRO HT Medium, Cat. S03319) with gently mixing. The cells were then centrifuged at […] for 5 min, the supernatant was discarded and the tube was refilled with 25 mL of PHH plating medium (Sigma, InVitroGRO CP Medium, Cat. S03317). The tube was shaken very gently to re-suspend all cells, and then 50 μL of cells were transferred to each well 384-well collagen I coated plate with appropriate liquid handling equipment, e.g. Integra VIAFLO384 or Agilent Bravo. The cells were then cultured for 24 hours in a cell incubator. For HBV infection, after PHH attachment on the culture plate, the plating medium was removed and replenished with PHH culture medium containing HBV virus. The PHH culture medium was prepared with Dulbecco's Modified Eagle Medium (DMEM)/F12 (1:1 in volume ratio) containing 10% fetal bovine serum (Gibco, Cat. 10099141), 5 ng/mL human epidermal growth factor (Gibco, Cat. PHG0311L), 20 ng/mL dexamethasone (Sigma, Cat. D4902-100 mg), 250 ng/mL human recombinant insulin (Gibco, Cat. 41400045) and 100 U/mL penicillin. HBV virus at 200 genome equivalent (GE) per cell with 4% PEG8000 (Sigma, Cat. P1458) containing culture medium were added to the PHH culture medium for infection. The cells were then cultured for 24 hours in cell incubator. Then the cell culture supernatant was removed. The HBV-infected PHH were cultured with sandwich culture method with MEI culture medium containing 1% DMSO and 0.25 mg/mL matrix gel for 72 hours. The supernatant was then refreshed with PHH culture medium containing different concentrations of testing compounds for two times with 72-hour interval. At the end of treatment, the supernatant was collected for viral markers measurements, including HBsAg, HBeAg, HBV DNA and cytotoxicity. HBsAg and HBeAg were detected using alphalisa method using their specific antibodies. For HBV DNA detection, HBV DNA Quantitative Fluorescence Diagnostic Kit (Sansure Biotech Inc.) was used following the manufacture's protocol. Cytotoxicity was determined using Cell Counting Kit-8 (CCK8, Dojindo Molecular Technologies, Inc.).
(§2) The compounds of the present invention were tested for their capacity to inhibit HBsAg and HBeAg as described herein.

[2] = tested on: HBeAg; experiment: PHH HBV natural infection assay, HBeAg (alphalisa); details: Hepatitis B virus, Hepatocyte, read-out: HBeAg IC50
Protocol: as §1, §2

[3] = Cytotoxicity in PHH natural infection assay (Cell Counting Kit-8); details: HBV-infected primary human hepatocytes, CCK8
Protocol: as §1

SMILES	IC50 [1] [µM]	IC50 [2] [µM]	CC50 at 144 h [3] [µM]
NC(=O)c1ccc(C(=O)NCC2CCN(c3nc4cc(Cl)ccc4o3)CC2)o1 [Example 1, N2-[[1-(5-Chloro-1,3-benzoxazol-2-yl)-4-piperidyl]methyl]furan-2,5-dicarboxamide]	9.4	7.13	> 10
O=C(NCC1CCN(c2nc3cc(Cl)ccc3o2)CC1)c1ccc(C(F)(F)F)nc1 [Example 2, N-[[1-(5-chloro-1,3-benzoxazol-2-yl)-4-piperidyl]methyl]-6-(trifluoromethyl)pyridine-3-carboxamide]	8.1	6.31	> 10
O=C(NCC1CCN(c2nc3cc(Cl)ccc3o2)CC1)c1ccnc(S(=O)(=O)C2CC2)c1 [Example 3, N-[[1-(5-chloro-1,3-benzoxazol-2-yl)-4-piperidyl]methyl]-2-cyclopropylsulfonyl-pyridine-4-carboxamide]	7.84	6.38	> 10
CS(=O)(=O)c1cccc(C(=O)NCC2CCN(c3nc4cc(Cl)ccc4o3)CC2)c1 [Example 4, N-[[1-(5-chloro-1,3-benzoxazol-2-yl)-4-piperidyl]methyl]-3-methylsulfonyl-benzamide]	6.28	5.74	> 10
CS(=O)(=O)c1cc(C(=O)NCC2CCN(c3nc4cc(Cl)ccc4o3)CC2)ccn1 [Example 5, N-[[1-(5-chloro-1,3-benzoxazol-2-yl)-4-piperidyl]methyl]-2-methylsulfonyl-pyridine-4-carboxamide]	4.68	4.93	> 10
NC(=O)c1cc(C(=O)NCC2CCN(c3nc4cc(Cl)ccc4o3)CC2)ccn1 [Example 6, N4-[[1-(5-chloro-1,3-benzoxazol-2-yl)-4-piperidyl]methyl]pyridine-2,4-dicarboxamide]	4.36	4.43	> 10
O=C(NCC1CCN(c2nc3cc(Cl)ccc3o2)CC1)c1ccc(C(F)(F)F)o1 [Example 7, N-[[1-(5-chloro-1,3-benzoxazol-2-yl)-4-piperidyl]methyl]-5-(trifluoromethyl)furan-2-carboxamide]	3.83	3.45	96.7
NS(=O)(=O)c1ccc(C(=O)NCC2CCN(c3nc4cc(Cl)ccc4o3)CC2)o1 [Example 8, N-[[1-(5-chloro-1,3-benzoxazol-2-yl)-4-piperidyl]methyl]-5-sulfamoyl-furan-2-carboxamide]	3.14	2.85	> 10
CS(=O)(=O)c1cncc(C(=O)NCC2CCN(c3nc4cc(Cl)ccc4o3)CC2)c1 [Example 9, N-[[1-(5-chloro-1,3-benzoxazol-2-yl)-4-piperidyl]methyl]-5-methylsulfonyl-pyridine-3-carboxamide]	1.5	1.83	> 10
O=C(NCC1CCN(c2nc3cc(Cl)ccc3o2)CC1)C1CS(=O)(=O)C1 [Example 10, N-[[1-(5-chloro-1,3-benzoxazol-2-yl)-4-piperidyl]methyl]-1,1-dioxo-thietane-3-carboxamide]	9.67	10.4	> 100
O=C(NCC1CCN(c2nc3cc(Cl)ccc3o2)C1)c1ccnc(S(=O)(=O)C2CC2)c1 (stereo not drawn) [Example 11, N-[[1-(5-chloro-1,3-benzoxazol-2-yl)pyrrolidin-3-yl]methyl]-2-cyclopropylsulfonyl-pyridine-4-carboxamide]	9.14	7.85	> 10
O=C(NC1CCN(c2nc3cc(Cl)ccc3o2)CC1)c1ccc(C(F)(F)F)o1 [Example 12, N-[1-(5-chloro-1,3-benzoxazol-2-yl)-4-piperidyl]-5-(trifluoromethyl)furan-2-carboxamide]	4.59	5.44	> 100
CS(=O)(=O)N1CCC(C(=O)NCC2CCN(c3nc4cc(Cl)ccc4o3)CC2)C1 (stereo not drawn) [Example 13, N-[[1-(5-chloro-1,3-benzoxazol-2-yl)-4-piperidyl]methyl]-1-methylsulfonyl-pyrrolidine-3-carboxamide]	9.37	8.5	> 10
Cc1ccc(S(=O)(=O)N2CCC(C(=O)NCC3CCN(c4nc5cc(Cl)ccc5o4)CC3)C2)cc1 (stereo not drawn) [Example 14, N-[[1-(5-chloro-1,3-benzoxazol-2-yl)-4-piperidyl]methyl]-1-(p-tolylsulfonyl)pyrrolidine-3-carboxamide]	3.82	4.16	> 10
CS(=O)(=O)N1CCC(C(=O)NCC2CCN(c3nc4cc(Cl)ccc4o3)CC2)CC1 [Example 15, N-[[1-(5-chloro-1,3-benzoxazol-2-yl)-4-piperidyl]methyl]-1-methylsulfonyl-piperidine-4-carboxamide]	3.97	3.64	> 10
Cc1ccc(S(=O)(=O)N2CCC(C(=O)NCC3CCN(c4nc5cc(Cl)ccc5o4)CC3)CC2)cc1 [Example 16, N-[[1-(5-chloro-1,3-benzoxazol-2-yl)-4-piperidyl]methyl]-1-(p-tolylsulfonyl)piperidine-4-carboxamide]	3.74	3.67	> 10
CS(=O)(=O)N1CC(CC(=O)NCC2CCN(c3nc4cc(Cl)ccc4o3)CC2)C1 [Example 17, N-[[1-(5-chloro-1,3-benzoxazol-2-yl)-4-piperidyl]methyl]-2-(1-methylsulfonylazetidin-3-yl)acetamide]	8.23	> 10	> 10
Cc1ccc(S(=O)(=O)N2CCC(CC(=O)NCC3CCN(c4nc5cc(Cl)ccc5o4)CC3)C2)cc1 (stereo not drawn) [Example 18, N-[[1-(5-chloro-1,3-benzoxazol-2-yl)-4-piperidyl]methyl]-2-[1-(p-tolylsulfonyl)pyrrolidin-3-yl]acetamide]	3.9	3.78	> 10
CS(=O)(=O)N1CCC(CC(=O)NCC2CCN(c3nc4cc(Cl)ccc4o3)CC2)CC1 [Example 19, N-[[1-(5-chloro-1,3-benzoxazol-2-yl)-4-piperidyl]methyl]-2-(1-methylsulfonyl-4-piperidyl)acetamide]	7.74	3.75	> 10
Cc1ccc(S(=O)(=O)N2CCC(CC(=O)NCC3CCN(c4nc5cc(Cl)ccc5o4)CC3)CC2)cc1 [Example 20, N-[[1-(5-chloro-1,3-benzoxazol-2-yl)-4-piperidyl]methyl]-2-[1-(p-tolylsulfonyl)-4-piperidyl]acetamide]	3.88	4.05	> 10
CCOC(=O)NC1CC2(C1)CN(c1nc3cc(Cl)ccc3o1)C2 [Example 21, Ethyl N-[2-(5-chloro-1,3-benzoxazol-2-yl)-2-azaspiro[3.3]heptan-6-yl]carbamate]	7.15	5.24	> 100
CC(C)COC(=O)NC1CC2(C1)CN(c1nc3cc(Cl)ccc3o1)C2 [Example 22, Isobutyl N-[2-(5-chloro-1,3-benzoxazol-2-yl)-2-azaspiro[3.3]heptan-6-yl]carbamate]	5.87	4.82	82.7
CN(C)C(=O)NC1CC2(C1)CN(c1nc3cc(Cl)ccc3o1)C2 [Example 23, 3-[2-(5-Chloro-1,3-benzoxazol-2-yl)-2-azaspiro[3.3]heptan-6-yl]-1,1-dimethyl-urea]	7.63	6.62	> 100
CCNC(=O)NC1CC2(C1)CN(c1nc3cc(Cl)ccc3o1)C2 [Example 24, 1-[2-(5-Chloro-1,3-benzoxazol-2-yl)-2-azaspiro[3.3]heptan-6-yl]-3-ethyl-urea]	7.29	8.31	> 100
O=C(CCC(F)(F)F)NC1CC2(C1)CN(c1nc3cc(Cl)ccc3o1)C2 [Example 25, N-[2-(5-chloro-1,3-benzoxazol-2-yl)-2-azaspiro[3.3]heptan-6-yl]-4,4,4-trifluoro-butanamide]	9.8	10.3	> 100
O=C(NC1CC2(C1)CN(c1nc3cc(Cl)ccc3o1)C2)C1CCS(=O)(=O)C1 (stereo not drawn) [Example 26, N-[2-(5-chloro-1,3-benzoxazol-2-yl)-2-azaspiro[3.3]heptan-6-yl]-1,1-dioxo-thiolane-3-carboxamide]	8.76	4.65	> 100

From US20230416238A1, “N-[(1,3-BENZOXAZOL-2-YL)-HETEROCYCLE]AMIDE DERIVATIVES FOR THE TREATMENT AND PROPHYLAXIS OF HEPATITIS B VIRUS INFECTION” (Hoffmann-La Roche Inc., priority 2020, published 2023)
